Source: ChEMBL document CHEMBL1240451, “Studies on chemical modification and biology of a natural product, gambogic acid (II): Synthesis and bioevaluation of gambogellic acid and its derivatives from gambogic acid as antitumor agents” (Eur J Med Chem, 2010)
Calls of active or inactive are those of the source. The rule behind the calls is not given here.

Key:
A549 [1] = assay: cells; conditions: Homo sapiens, A549, 48 h
Description: Cytotoxicity against human A549 cells after 48 hrs by MTT assay

Bel-7402 [2] = assay: Cytotoxicity against human Bel7402 cells after 48 hrs by MTT assay; format: functional, cell-based; conditions: Bel-7402, 48 h
HT-29 [3] = assay: Cytotoxicity against human HT-29 cells after 48 hrs by MTT assay; format: functional, cell-based; conditions: HT-29, 48 h
BGC-823 [4] = assay: Cytotoxicity against human BGC823 cells after 48 hrs by MTT assay; format: functional, cell-based; conditions: BGC-823, 48 h
BGC-823 [5] = assay: Ratio of compound IC50 to gambogic acid IC50 for human BGC823 cells; format: functional
HT-29 [6] = assay: Ratio of compound IC50 to gambogic acid IC50 for human HT-29 cells; format: functional
A549 [7] = assay: Ratio of compound IC50 to gambogic acid IC50 for human A549 cells; format: functional
BGC-823 [8] = assay: Induction of apoptosis human BGC823 cells assessed as increase of apoptotic cells at 2 uM after 20 hrs using Annexin-V/PI double-staining by flow cytometry (reference value: 3.9%); format: functional
BGC-823 [9] = assay: Induction of apoptosis human BGC823 cells assessed as increase of apoptotic cells at 4 uM after 20 hrs using Annexin-V/PI double-staining by flow cytometry (reference value: 3.9%); format: functional
BGC-823 [10] = assay: Induction of apoptosis human BGC823 cells assessed as morphological changes at up to 8 uM after 48 hrs using Annexin-V/PI double-staining by light microscopic analysis; format: functional, cell-based
Bel-7402 [11] = assay: Ratio of compound IC50 to gambogic acid IC50 for human Bel7402 cells; format: functional
BGC-823 [12] = assay: Induction of apoptosis human BGC823 cells assessed as increase of apoptotic cells after 20 hrs using Annexin-V/PI double-staining by flow cytometry (reference value: 3.9%); format: functional, cell-based
BGC-823 [13] = assay: Induction of apoptosis human BGC823 cells assessed as nuclear fragmentation at up to 8 uM after 20 hrs using Annexin-V/PI double-staining by light microscopic analysis; format: functional, cell-based
BGC-823 [14] = assay: Induction of apoptosis human BGC823 cells assessed as increase of apoptotic cells at 8 uM after 20 hrs using Annexin-V/PI double-staining by flow cytometry (reference value: 3.9%); format: functional

| IC50 (A549 [1]) | SMILES | IC50 (Bel-7402 [2]) | IC50 (HT-29 [3]) | IC50 (BGC-823 [4]) | Ratio IC50 (BGC-823 [5]) | Ratio IC50 (HT-29 [6]) | Ratio IC50 (A549 [7]) | Activity (BGC-823 [8]) | Activity (BGC-823 [9]) | Activity (BGC-823 [10]) | Ratio IC50 (Bel-7402 [11]) | Activity (BGC-823 [12]) | Activity (BGC-823 [13]) | Activity (BGC-823 [14]) |
| --- | --- | --- | --- | --- | --- | --- | --- | --- | --- | --- | --- | --- | --- | --- |
| 4630 nM | C=C(C)C1CC[C@]2(C)CC1c1c(O)c3c(c(CCC(C)(C)Cl)c1O2)O[C@]12C(=C[C@@H]4C[C@@H]1C(C)(C)O[C@@]2(C/C=C(/C)C(=O)OC)C4=O)C3=O (some centres undefined) | 2630 nM | 4550 nM | 1980 nM | 2 | – | – | – | – | – | – | – | – | – |
| 2340 nM | COC(=O)/C(C)=C\C[C@@]12OC(C)(C)[C@H]3C[C@@H](C=C4C(=O)c5c(O)c6c(c(CC7OC7(C)C)c5O[C@]431)O[C@]1(C)CCC(=C(C)C)C6C1)C2=O (some centres undefined) | 8100 nM | 120 nM | 2530 nM | – | 14 | – | – | – | – | – | – | – | – |
| 1790 nM | C=C(C)C1CC[C@]2(C)CC1c1c(O)c3c(c(CC=C(C)C)c1O2)O[C@]12C(=C[C@@H]4C[C@@H]1C(C)(C)O[C@@]2(C/C=C(/C)C(=O)OC)C4=O)C3=O (some centres undefined) | 4560 nM | 810 nM | 2610 nM | – | 4 | 2 | – | – | – | – | – | – | – |
| 5550 nM | COC(=O)/C(C)=C\C[C@@]12OC(C)(C)[C@H]3C[C@@H](C=C4C(=O)c5c(O)c6c(c(CC=C(C)C)c5O[C@]431)O[C@]1(C)CCC(=C(C)C)C6C1)C2=O | 7860 nM | 540 nM | 6620 nM | – | 4 | – | – | – | – | – | – | – | – |
| 27600 nM | C/C(=C/C[C@@]12OC(C)(C)[C@H]3C[C@@H](C=C4C(=O)c5c(O)c6c(c(CCC(C)(C)Cl)c5O[C@]431)O[C@]1(C)CC(=O)C(C(C)C)C6C1)C2=O)C(=O)O (some centres undefined) | 4120 nM | 5600 nM | 2930 nM | – | – | – | – | – | – | – | – | – | – |
| 980 nM | C=C(C)C1CC[C@]2(C)CC1c1c(O)c3c(c(C/C=C(\C)CO)c1O2)O[C@]12C(=C[C@@H]4C[C@@H]1C(C)(C)O[C@@]2(C/C=C(/C)C(=O)OC)C4=O)C3=O (some centres undefined) | 13000 nM | 240 nM | 620 nM | 2 | 14 | 2 | – | – | – | – | – | – | – |
| 2420 nM | COC(=O)/C(C)=C\C[C@@]12OC(C)(C)[C@H]3C[C@@H](C=C4C(=O)c5c(O)c6c(c(CC=C(C)C)c5O[C@]431)O[C@]1(C)CCC(C3(C)CO3)C6C1)C2=O (some centres undefined) | 4380 nM | 490 nM | 920 nM | 2 | 4 | – | – | – | – | – | – | – | – |
| 3180 nM | C/C(=C/C[C@@]12OC(C)(C)[C@H]3C[C@@H](C=C4C(=O)c5c(O)c6c(c(CCC(C)(C)Cl)c5O[C@]431)O[C@]1(C)CCC(C3(C)CO3)C6C1)C2=O)C(=O)O (some centres undefined) | 440 nM | 1330 nM | 280 nM | – | – | – | 4.2% | 6.2% | Active | 4.7 | Dose-dependent effect | Active | 25.7% |
| > 100000 nM | C=C(C)C1CC[C@]2(C)CC1c1c(O)c3c(c(CCC(C)(C)Cl)c1O2)O[C@]12[C@@H]4C[C@H](C(=O)[C@]1(C/C=C(/C)C(=O)O)OC4(C)C)C(O)C2(O)C3=O (some centres undefined) | > 100000 nM | > 100000 nM | > 100000 nM | – | – | – | – | – | – | – | – | – | – |
| 1560 nM | COC(=O)/C(C)=C\C[C@@]12OC(C)(C)[C@H]3C[C@@H](C=C4C(=O)c5c(O)c6c(c(C/C=C(\C)CO)c5O[C@]431)O[C@]1(C)CCC(=C(C)C)C6C1)C2=O | 11000 nM | 140 nM | 1420 nM | 2 | 14 | 2 | – | – | – | – | – | – | – |
| 1240 nM | C=C(C)C1CC[C@]2(C)CC1c1c(O)c3c(c(CCC(C)(C)Cl)c1O2)O[C@]12C(=C[C@@H]4C[C@@H]1C(C)(C)O[C@@]2(C/C=C(/C)C(=O)O)C4=O)C3=O (some centres undefined) | 18100 nM | 1640 nM | 4000 nM | – | – | 2 | – | – | – | – | – | – | – |
| 1120 nM | C=C(C)C1CC[C@]2(C)CC1c1c(O)c3c(c(CC=C(C)C)c1O2)O[C@]12C(=C[C@@H]4C[C@@H]1C(C)(C)O[C@@]2(C/C=C(/C)C(=O)O)C4=O)C3=O (some centres undefined) [GAMBOGELLIC ACID] | 6480 nM | 1340 nM | 460 nM | – | – | 2 | – | – | – | – | – | – | – |

| SMILES | IC50 (A549 [1]) | IC50 (Bel-7402 [2]) | IC50 (HT-29 [3]) | IC50 (BGC-823 [4]) | Ratio IC50 (BGC-823 [5]) | Ratio IC50 (HT-29 [6]) | Ratio IC50 (A549 [7]) | Activity (BGC-823 [8]) | Activity (BGC-823 [9]) | Activity (BGC-823 [10]) | Ratio IC50 (Bel-7402 [11]) | Activity (BGC-823 [12]) | Activity (BGC-823 [13]) | Activity (BGC-823 [14]) |
| --- | --- | --- | --- | --- | --- | --- | --- | --- | --- | --- | --- | --- | --- | --- |
| CC(C)=CCC[C@]1(C)C=Cc2c(O)c3c(c(CC=C(C)C)c2O1)O[C@]12C(=C[C@@H]4C[C@H]1C(C)(C)O[C@@]2(C/C=C(/C)C(=O)O)C4=O)C3=O [GAMBOGIC ACID] | 3650 nM | 2080 nM | 3520 nM | 2830 nM | – | – | – | – | – | – | – | – | – | – |
